Here are results for two substances from article PMC10107326 (Angewandte Chemie (International Ed. in English), 2022).

No end group written: not given here.

One assay deals with HepG2. In words: Cytotoxicity against HepG2. The class given is cell-based. As to conditions: HepG2 human cell line.
The test system of the next assay is large panel of pathogens. As to conditions: pure DD; cited from earlier work.

Regarding “D32: engineered darobactin, core peptide WNWCKRW, cysteine disulfide-bonded to L-cysteine and lactic acid (not fully specified; also: Cys4 disulfide-bonded to L-cysteine, lactic acid attached, position not given here)”, the IC50 (commonly the concentration at which inhibition is half-maximal) in the assay with HepG2 was greater than 37 µg/mL.

As to “WNWTRSF (also: bicyclic or more (positions not given here)) [DD]”, the “decrease in activity when comparing DA and DD, fold” value in the assay on large panel of pathogens is 16 fold.
